Results reported in PubChem BioAssay (NCI).
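Exposure lasted 48 hours, with cells grown in 96-well plates and compounds tested at five concentrations. TGI denotes the concentration required for complete inhibition of growth.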 Where a SMILES comes first, the peptide text is derived from it. [ ]: non-standard residue; d: D form. ΔPro = O=C(O)[CH]1C=CCN1

What was measured:
Assay in all cases: NCI-60 cell line screen, 48 h
LOX IMVI melanoma = test system: LOX IMVI melanoma
COLO 205 colon = test system: COLO 205 colon
SK-OV-3 ovarian = test system: SK-OV-3 ovarian
SF-295 CNS = test system: SF-295 CNS
SNB-75 CNS = test system: SNB-75 CNS
SK-MEL-2 melanoma = test system: SK-MEL-2 melanoma
MDA-MB-435 = test system: MDA-MB-435
SR leukemia = test system: SR leukemia
KM12 colon = test system: KM12 colon
SN12C renal = test system: SN12C renal
SF-539 CNS = test system: SF-539 CNS

Structure (SMILES) | TGI (LOX IMVI melanoma) [µM] | TGI (COLO 205 colon) [µM] | TGI (SK-OV-3 ovarian) [µM] | TGI (SF-295 CNS) [µM] | TGI (SNB-75 CNS) [µM] | TGI (SK-MEL-2 melanoma) [µM] | TGI (MDA-MB-435) [µM] | TGI (SR leukemia) [µM] | TGI (KM12 colon) [µM] | TGI (SN12C renal) [µM] | TGI (SF-539 CNS) [µM]
COC(=O)C1(C(=O)OC)N=C(C)OC1c1ccccc1O (centres undefined) | > 100 | > 100 | > 100 | > 100 | > 100 | > 100 | > 100 | > 100 | > 100 | > 100 | 
Cn1c(=O)c2ccccc2[n+]2c(-c3cccc([N+](=O)[O-])c3)csc12 | > 100 | > 100 | > 100 | > 100 | 82.2 | > 100 | > 100 | 71.5 | > 100 | > 100 | > 100
O=S1SC(=S)C2C=CC=NC21 (centres undefined) | 32.7 | 40.3 | > 100 | 62.3 | 34.9 | 36.6 | > 100 | 77.7 | > 100 | 28.8 | 33.3
CN1CCC2(c3ccccc3)CC(=O)/C(=C/c3ccc(Cl)c(Cl)c3)C1C2 (centres undefined) | 3.34 | 4.2 | 13.6 | 6.52 | 11.2 | 9.87 | 5.14 | 4.74 | 4.14 | 3.72 | 4.35
Cc1ccc2[nH]c3c(c(=O)n(C)c(=O)n3C)c2c1 | > 100 | > 100 | > 100 | > 100 | > 100 | > 100 | > 100 | > 100 | > 100 | > 100 | > 100
COc1ccc(N2C(=O)C(Cl)C2c2cc3cc(Br)ccc3nc2Cl)cc1 (centres undefined) | 4.41 | 9.11 | > 25 | > 25 | > 25 | 11.1 | 10.7 | 6.82 | > 25 | 12.3 | 10
CCCCCCCCOC(=O)C12Oc3ccc(-c4ccc5c(c4O)C(O)=C4C(=O)CC(C)C(O)C4(C(=O)OCCCCCCCC)O5)c(O)c3C(O)=C1C(=O)CC(C)C2O (centres undefined) | > 100 | 65.3 | > 100 | 48 | 25.5 | 47.4 | > 100 | 20.3 | > 100 | > 100 | 19.7
COc1cc(S(=O)(=O)Nc2ccc(-c3csc(N4C(=O)C(C)SC4c4cccs4)n3)cc2)ccc1Cl (centres undefined) | 96.7 | 49.4 | > 100 | > 100 |  | 22.8 | > 100 | > 100 | 23 | > 100 | > 100
CCc1n[nH]c(=O)n1CC | > 100 | > 100 | > 100 | > 100 |  | > 100 | > 100 | > 100 | > 100 | > 100 | > 100
CC(Br)CN1CCOCC1 (centres undefined) | > 100 | > 100 | > 100 |  |  | > 100 | > 100 | > 100 | > 100 | > 100 | > 100
CC(=O)Nc1cc(Cl)cc(Cl)c1O |  | > 100 | > 100 | > 100 | > 100 | > 100 | > 100 | > 100 | > 100 | > 100 | > 100
C/C(O)=C(\C=N\C(=S)N=Nc1c(O)[nH]c2ccccc12)C(=O)Nc1ccccc1C | > 100 | > 100 | > 100 | > 100 | > 100 | > 100 | > 100 |  | > 100 | > 100 | > 100
C/C(=C\COP(=O)(O)OP(=O)(O)O)CCCCCCOCc1ccccc1 | > 100 | > 100 | > 100 | > 100 | > 100 |  | > 100 | > 100 | > 100 | > 100 | > 100
CC(=O)NS(=O)(=O)c1ccc(NCc2cccc3c(=O)c4ccc(Cl)cc4oc23)cc1 | > 100 | > 100 | > 100 | > 100 | > 100 | > 93.6 | > 100 |  | > 100 | > 100 | > 65.3
c1ccc(C2=NN2c2ccccc2)cc1 | > 100 | > 100 | > 100 | > 100 | > 100 | > 100 | > 100 | > 100 | > 100 | > 100 | > 100
CCOC(=O)c1ncn(CCc2ccc(Cl)cc2)c1C | > 100 | > 100 |  | > 100 |  | > 100 | > 100 | > 100 | > 100 | > 100 | > 100
O[C@@]1(C#Cc2ccc3c(c2)OCO3)CCC[C@H]1NCc1ccccc1 | 30.9 | 37.4 | > 100 | 40.3 | 89.8 | 31.9 | 50.2 | 50.7 | 42.7 |  | 39.5
NS(=O)(=O)c1nnc(NS(=O)(=O)c2ccccc2[N+](=O)[O-])s1 |  | > 100 | > 100 | > 100 | > 100 | > 100 | > 100 | > 100 | > 100 |  | > 100
CSC1=NN(C(C)=O)C(C(OC(C)=O)C(OC(C)=O)C(OC(C)=O)C(COC(C)=O)OC(C)=O)S1 (centres undefined) | > 100 | > 100 | > 100 | > 100 | > 100 | > 100 | > 100 | > 100 | > 100 | > 100 | > 100
Cn1nnc2c(C(N)=S)ncn2c1=O | > 100 | > 100 | > 100 | > 100 | > 100 | > 100 | > 100 | > 100 | > 100 | > 100 | > 100
O=C(O)C1C=CCN1C(=O)C1C=CCN1C(=O)C1C=CCN1 (centres undefined) (H-[ΔPro]-[ΔPro]-[ΔPro]-OH; configuration not given here) | > 100 | > 100 | > 100 | > 100 | > 100 | > 100 | > 100 | > 100 | > 100 | > 100 | > 100
C=C(C)C1CC[C@@](C)(O)[C@H](C#N)C1 (some centres undefined) | > 100 | > 100 | > 100 | > 100 | > 100 | > 100 | > 100 | > 100 | > 100 | > 100 | > 100

Structure (SMILES) | TGI (LOX IMVI melanoma) [µM] | TGI (COLO 205 colon) [µM] | TGI (SK-OV-3 ovarian) [µM] | TGI (SF-295 CNS) [µM] | TGI (SNB-75 CNS) [µM] | TGI (SK-MEL-2 melanoma) [µM] | TGI (MDA-MB-435) [µM] | TGI (SR leukemia) [µM] | TGI (KM12 colon) [µM] | TGI (SN12C renal) [µM] | TGI (SF-539 CNS) [µM]
O=C(OCc1ccccc1)C(Cc1ccc(OCc2ccccc2)cn1)NC(=O)C(F)(F)F (centres undefined) | > 100 | > 100 |  | > 100 | 98.8 |  | > 100 | > 100 | > 100 | > 100 | > 100
COc1ccc(-c2sc(Br)c3c2C(=O)C2OC(=O)NC32)cc1OC (centres undefined) | > 100 | > 100 | > 100 | > 100 | > 100 | > 100 | > 100 | > 100 | > 100 | > 100 | > 100
CC1(C)Cc2c(sc3[nH]c(=S)[nH]c(=S)c23)CS1 | > 100 | > 100 | 99.7 |  |  | > 100 | > 100 | > 100 | > 100 | > 100 | > 100
C/C=C/c1cc2c(cc1O)CC[C@@H]1[C@@H]2CC[C@]2(C)[C@@H](O)CC[C@@H]12 | 24.3 | 24.4 | 15.3 | 14.2 | 3.48 | 16.7 | 0.0948 | > 19.6 | 13.4 | 20.5 | 0.15
CCN(CC)CCNc1ccc2ncn3c4ccc(OC)cc4c(=O)c1c23 | 4.68 | 15.5 | 23.8 | 11.6 | 20.8 | 25.4 | 18.6 | > 22.7 | 7.68 | 18.3 | 20
COC(=O)/C=C/CCC#Cc1ccccc1C#CCC/C=C/C(=O)OC | 64 | 42.3 | > 100 | > 100 | 19 |  | > 100 | > 100 | > 100 | 55.7 | 30.9
CC1(C)OCC(CO)(CO)CO1 | > 100 | > 100 | > 100 | > 100 | > 100 |  | > 100 | > 100 | > 100 | > 100 | 
C=C1N(S(=O)(=O)c2ccc(C)cc2)C(=O)OCC12CCCC2 | > 100 | > 100 | > 100 | > 100 | 62.6 |  | > 100 | > 100 | > 100 |  | > 100
CCOP(=O)(C/C=C/Cn1ncc(=O)[nH]c1=O)OCC | > 100 | > 100 |  |  | > 100 | > 100 | > 100 |  | > 100 | > 100 | > 100
CSc1c(C#N)c(=O)n(N)c2c1c(C)nn2-c1ccccc1 | 52.6 | 32.5 | 93.8 |  | 85.4 | 63.3 | > 100 | 71.8 | > 100 | > 100 | 55.5
C=C(C)[C@H]1CC[C@@]23O[C@@H]2[C@@H](C[C@@]2(C)CC(=O)[C@H](CC(=O)C1)O2)OC(=O)[C@@]12CC[C@H](C(=C)C)CC(=O)C[C@H]4O[C@](C)(CC4=O)C[C@@H](OC3=O)[C@@H]1O2 | > 100 | > 100 | > 100 | > 100 | > 100 | > 100 | > 100 |  | > 100 | > 100 | > 100
c1ccc2sc(SSSc3nc4ccccc4s3)nc2c1 | 49 | > 100 | > 100 | > 100 | > 100 | > 100 | > 100 | > 100 | > 100 | > 100 | 
C=C1CC[C@@H]2C13[C@@H]1[C@H](CC(=O)[C@@]23C)C1(C)C (some centres undefined) | > 100 | > 100 | > 100 | > 100 |  | > 100 | > 100 | > 100 | > 100 | > 100 | > 100
O=c1[nH]c2c(c(=O)[nH]1)SC(c1ccccc1)C2 (centres undefined) | > 100 | > 100 |  | > 100 | > 100 | > 100 | > 100 |  | > 100 |  | > 100
Cc1cc(C)c(NS(=O)c2cccc(C(F)(F)F)c2)c(C)c1 (centres undefined) |  | > 100 |  | > 100 |  |  | > 100 | > 100 | > 100 | > 100 | > 100
COC(=O)[C@@H]1CN(C(=O)CCc2ccccc2)C(=O)N1 | > 100 | > 100 | > 100 | > 100 |  | > 100 | > 100 | > 100 | > 100 | > 100 | > 100
C=C(COCO)C(C)=O | 31.7 | 20.8 | > 100 | > 100 | 30.5 | 40.5 | 28.3 |  | > 54.5 | 33 | 13.6
O=Cc1ccc2ccocc1-2 | > 100 | > 100 | > 100 | > 100 |  | > 100 | > 100 | > 100 | > 100 | > 100 | > 100
CNc1cc([N+](=O)[O-])ccc1C(=O)N1CCC[C@H]1CO | > 100 |  | > 100 | > 100 | > 100 | > 100 | > 100 | > 100 | > 100 | > 100 | > 100
CCO/C(O)=C(/C(=N)N1CCOCC1)C(=O)NC(C)C | > 100 | > 100 | > 100 | > 100 | > 100 | > 100 | > 100 |  | > 100 | > 100 | > 100
Clc1cccc(-c2nc3cccc4c3n2Cc2ncccc2-4)c1 |  | > 100 | > 100 | > 100 | 58.6 |  | > 100 | > 100 | > 100 | > 100 | > 100
